Structures are written as SMILES.

The data set can be described thus: gradient 5% acetonitrile 3 min, to 50% in 2 min, to 85% in 15 min, held 3 min, 100 µL/min. Particulars: column: Zorbax Extend-C18 2.1 x 50 mm; eluents: water / acetonitrile, 0.1% formic acid. In a few lines: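 Over 3 months, pure standards in mixtures of ~100 molecules were run by HPLC coupled to a quadrupole time-of-flight mass spectrometer in positive and negative ionization mode. The column was a Zorbax Extend-C18 (2.1 × 50 mm, 1.8 μm) at 100 μL/min, eluted with water and acetonitrile each holding 0.1% formic acid, with 40 μL dead and 900 μL dwell volumes. Retention time was determined from adduct peaks chosen by software and checked manually.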
In turn, `CCCCCNC(=O)c1ccc2c(c1)CCCN2S(C)(=O)=O` displayed an RP-LC retention time of 846 s. `COc1ccc(-n2nnc(C(=O)N3CCOCC3)c2C)cc1Cl` showed an RP-LC retention time of 684 s.

As to `CC(C)N1C(=O)c2cccnc2Sc2cc(NC(=O)c3cccnc3)ccc21`, the RP-LC retention time came out at 662 s. The molecule `Cc1ccc(C)c(S(=O)(=O)NCc2c(-c3ccccc3)nc3sc(C)nn23)c1` displayed an RP-LC retention time of 916 s.

In turn, `CC(C)Sc1cc(NCCCO)c([N+](=O)[O-])c2nonc12` yielded an RP-LC retention time of 723 s. As to `Cc1ccc(Cl)cc1NC(=O)N1CCC(c2nc(C(=O)N3CCCC3)c(C)o2)CC1`, the RP-LC retention time turned out to be 858 s.

As to `COc1cccc(CN2CC[C@@H]3CN(S(C)(=O)=O)[C@@H]3C2)c1OC`, the RP-LC retention time was 604 s. `COc1ccc(F)cc1S(=O)(=O)N1CC(F)(F)C[C@H]1CN1CCc2ccccc2C1` came in with an RP-LC retention time of 739 s. `Cc1cc(NC(=O)c2csc(-c3cn(C)c4ncccc34)n2)ccc1F` yielded an RP-LC retention time of 1050 s. The molecule `Cc1ccc(NC(=O)COc2nc(C)nc3ccccc23)c(Br)c1` showed an RP-LC retention time of 874 s. Molecule `Cc1ccccc1-c1ccc(N2CCCC(C(=O)NC(C)CCc3ccccc3)C2)nn1` (stereo not drawn) yielded an RP-LC retention time of 817 s.

With `CCOC(=O)C1CCN(C(=O)c2sc(Nc3ccc(F)cn3)nc2C)CC1`, the RP-LC retention time amounted to 771 s. The molecule `Cc1ccc(NC(=O)c2ccc(=O)n(CCN3CCOCC3)c2)cc1` gave an RP-LC retention time of 611 s. The value for `CCN(CC)S(=O)(=O)c1ccc2c(c1)N(CC(=O)NCCOC)C(=O)C1CCCCN21` (stereo not drawn) was 788 s; that for `Cn1c(=O)n(C)c2cc(N3CCOCC3)c(NC(=O)NCc3cccc(F)c3)cc21` was 705 s. The value for `COc1ccc(NC(=O)N2CC(N(C3CCOCC3)S(C)(=O)=O)C2)cc1F` was 685 s; that for `Cc1ccc(Cn2c(=O)n(CCNC(=O)c3cccs3)c3ncccc32)cc1` was 808 s. For the molecule `CCOC(=O)C(=O)NCc1ccccc1Cl`, the RP-LC retention time is 735 s.

Molecule `Cc1cc(C)n(CC(=O)N2CCN(c3ccccc3F)CC2)c1-c1nc(C2CC2)no1` displayed an RP-LC retention time of 971 s. In turn, `CSc1cccc(NC(=O)N2CCC(CC(=O)NCc3cccc(F)c3)CC2)c1` yielded an RP-LC retention time of 843 s. As for `CCC(CO)NCc1ccc(-c2cc(Cl)ccc2Cl)o1` (stereo not drawn), the RP-LC retention time worked out at 693 s. Take `COCC(=O)Nc1ccc2c(c1)CN(C(=O)c1ccccc1)CC2`: the RP-LC retention time was 658 s. `Cc1nc(Cn2cccc2C(=O)N2CCc3ccccc32)no1` gave an RP-LC retention time of 885 s. `CSc1cccc(NC(=O)Cn2c(=O)n(-c3cccc(C)c3)c(=O)c3c2cc(C)n3C)c1` gave an RP-LC retention time of 920 s. With `COC(=O)C1=CN(c2ccc(F)c(F)c2)c2ccccc2S1(=O)=O`, the RP-LC retention time was 789 s. `CCOC(=O)c1ccc(NC(=O)Cn2cnc3cc4c(cc32)OCCO4)cc1` returned an RP-LC retention time of 662 s. In the case of `Fc1cc(F)cc(-c2nnc(Cc3nc(-c4ccc(Br)cc4)no3)o2)c1`, the RP-LC retention time was determined as 1150 s.

In turn, `CCc1ccc(C2CC(=O)Nc3c(S(=O)(=O)c4ccccc4)csc32)cc1` (stereo not drawn) gave an RP-LC retention time of 1060 s.

In turn, `CCOC(=O)Cn1c(=O)c2cnc(-c3ccc(C)cc3)nc2n(C)c1=O` yielded an RP-LC retention time of 1060 s. The value for `Cc1ccc(-c2cc3c(=O)n(Cc4noc(CN5CCCC5)n4)ccn3n2)c(C)c1` was 686 s. Take `Cc1ccc(CCNC(=O)c2cc3n(n2)CC(C)(C(=O)NC2CCCCC2)N(C)C3=O)cc1` (stereo not drawn): the RP-LC retention time was determined as 844 s.

For `COc1ccc(N2CC(c3nc(-c4cccc(C(F)(F)F)c4)no3)CC2=O)cc1OC` (stereo not drawn), the RP-LC retention time was 966 s. In the case of `CCCCN1CCN(C(=O)c2cn3cc(Cl)ccc3n2)CC1`, the RP-LC retention time is 589 s. `Nc1nc(N2CCN(C3CCCCC3)CC2)ncc1C(=O)Nc1ccccc1`: the RP-LC retention time turned out to be 624 s. In turn, `Cc1nnc2ccc(N3CCC(C)CC3)nn12` registered an RP-LC retention time of 1000 s.

Consider `O=C(NCCc1csc(-c2cccc(F)c2)n1)c1cccs1`, for which the RP-LC retention time was determined as 905 s. Regarding `O=C(NCC1CCS(=O)(=O)C1)c1nc2ccccc2s1` (stereo not drawn), the RP-LC retention time was determined as 659 s. With `CC(C)c1ccc(NC(=O)C2CCN(S(=O)(=O)c3ccc4c(c3)sc(=O)n4C)CC2)cc1`, the RP-LC retention time worked out at 993 s. Molecule `CCOc1ccc(-n2c(=O)c3sccc3n(Cc3nc(-c4ccc(Cl)c(F)c4)no3)c2=O)cc1` displayed an RP-LC retention time of 1140 s. In the case of `COc1ccccc1NC(=O)N1CC(c2nc(C)no2)C2(CCOCC2)C1` (stereo not drawn) it was 676 s; in that of `Cc1nc(-c2csc(S(=O)(=O)NCc3ccccc3Cl)c2)sc1C`, 1030 s; in that of `CCOC(=O)C1CCN(C(=O)C(C)N2C(=O)C3CCCCN3C(=O)c3ccccc32)CC1` (stereo not drawn), 745 s.

Consider `O=C(CCC(=O)N1CC2CCCN2c2ccccc21)N1CCN(Cc2ccccc2)CC1` (stereo not drawn), for which the RP-LC retention time was 678 s. Molecule `CC(c1ccccc1)c1nc(-c2ccc3c(c2)nnn3CCN2CCOCC2)no1` (stereo not drawn) had an RP-LC retention time of 714 s. In turn, `COc1ccc(-n2ccn3cc(-c4ccc(OC)c(OC)c4)nc3c2=O)cc1` gave an RP-LC retention time of 723 s.

The molecule `O=c1c(O[C@@H]2O[C@H](CO)[C@H](O)[C@H](O)[C@H]2O)c(-c2ccc(O)c(O)c2)oc2cc(O)cc(O)c12` displayed an RP-LC retention time of 656 s. In turn, `Cc1[nH]c2ccc(-c3nnc(SC(C)C(=O)Nc4ccc5c(c4)OCCO5)o3)cc2c1C` (stereo not drawn) yielded an RP-LC retention time of 936 s. In turn, `Cc1ccccc1-c1noc(CCc2nnc3ccc(N4CCN(c5ccc(F)cc5)CC4)nn23)n1` showed an RP-LC retention time of 1110 s.

The molecule `O=C(Nc1ccc2c(c1)OCCO2)C1CC(=O)N(CCc2c[nH]c3ccc(F)cc23)C1` (stereo not drawn) registered an RP-LC retention time of 764 s. The molecule `CNc1ccc2oc(C[C@H]3O[C@@]4(CC[C@H]3C)O[C@H]([C@H](C)C(=O)c3ccc[nH]3)[C@H](C)C[C@H]4C)nc2c1C(=O)O` had an RP-LC retention time of 1030 s.

Consider `Cc1nc(N2CCN(c3ncccn3)CC2)nc2c1C(=O)CC(/C=C/c1ccccc1)C2` (stereo not drawn), for which the RP-LC retention time is 1290 s.

The molecule `Cc1cc(NS(=O)(=O)c2cc(-c3[nH]ncc3C(=O)N(C)C)oc2C)ccc1F` came in with an RP-LC retention time of 699 s. As to `Cc1cccc(NC(=O)C2CCN(S(=O)(=O)c3cc(C(=O)N4CCCC4)cs3)CC2)c1C`, the RP-LC retention time worked out at 818 s. In the case of `O=C(Nc1nnc(C2CC(=O)N(c3ccc(F)cc3)C2)o1)c1ccccc1F` (stereo not drawn), the RP-LC retention time was 701 s.

Consider `COc1cc2c(cc1O)CC1c3c(cc(O)c(OC)c3-2)CCN1C` (stereo not drawn), for which the RP-LC retention time turned out to be 628 s. Turning to `O=C(NCCC1CCN(S(=O)(=O)c2ccc(F)cc2)CC1)Nc1ccc(F)cc1F`, the RP-LC retention time amounted to 935 s.

As for `Cc1cnc(CNC(=O)c2c(=O)c3ccc(N4CCCN(C)CC4)nc3n3c2sc2ccccc23)cn1`, the RP-LC retention time was 681 s.

Molecule `N#Cc1ccc(NC(=O)Cn2cccc(-c3nc(-c4ccc(F)cc4)no3)c2=O)cc1` registered an RP-LC retention time of 857 s.

Values taken from the METLIN SMRT retention time set (Domingo-Almenara et al. 2019).
